Assay results taken from ChEMBL document CHEMBL1201862, “PubChem BioAssay data set” (2004).
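Assay format: 96-well plates, 48-hour exposure. GI50 = concentration required for 50% inhibition of growth.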 The source made the active and inactive calls. Cut-off read from the data, not from the text of the source: active = GI50 up to about 1.1 µM and inactive = higher.

What was measured:
Experiment in all cases: NCI anticancer screen, dose series, 48 h
[1] = system: TK-10
[2] = system: K562
[3] = system: SF-268
[4] = system: SNB-19
[5] = system: A498
[6] = system: SF-295
[7] = system: U-251
[8] = system: SK-MEL-2
[9] = system: OVCAR-3
[10] = system: M14
[11] = system: SNB-75
[12] = system: NCI-H522
[13] = system: CCRF-CEM
[14] = system: KM12
[15] = system: UO-31
[16] = system: SR

Measured: GI50

O=C1CCC(=O)c2ccccc2N1
inactive: [1] > 100 µM | [2] > 100 µM | [3] > 100 µM | [4] > 100 µM | [5] > 100 µM | [6] > 100 µM | [7] > 100 µM | [8] > 100 µM | [9] > 100 µM | [10] > 100 µM | [11] > 100 µM | [12] > 100 µM | [13] > 100 µM | [14] > 100 µM | [15] > 100 µM

CCc1ccccc1NC(=O)C(=O)C(C(=O)c1ccc(OC)cc1)c1ccc(OC)cc1 (configuration not stated)
inactive: [1] > 100 µM | [2] > 100 µM | [3] > 100 µM | [4] > 100 µM | [5] > 100 µM | [6] > 100 µM | [7] > 100 µM | [8] > 100 µM | [9] > 100 µM | [10] > 100 µM | [12] > 100 µM | [13] > 100 µM | [14] > 100 µM | [15] > 100 µM

Cc1nc2ccccc2c(=O)n1-c1ccccc1F
inactive: [1] > 100 µM | [2] > 100 µM | [3] > 100 µM | [4] > 100 µM | [5] > 100 µM | [6] > 100 µM | [7] > 100 µM | [8] > 100 µM | [9] > 100 µM | [10] > 100 µM | [11] 30.2 µM | [12] > 100 µM | [13] > 100 µM | [14] > 100 µM | [15] 74.3 µM

COC(=O)c1c(CC#N)cccc1CC#N
inactive: [2] > 100 µM | [3] > 100 µM | [4] > 100 µM | [6] > 100 µM | [7] > 100 µM | [8] > 100 µM | [16] > 100 µM | [9] > 100 µM | [10] > 100 µM | [11] > 100 µM | [12] > 100 µM | [13] > 100 µM | [14] > 100 µM | [15] > 100 µM

C=C(CO)CC(O)c1cc(OC)ccc1OC (configuration not stated)
inactive: [1] > 100 µM | [2] > 100 µM | [3] > 100 µM | [4] > 100 µM | [6] > 100 µM | [7] > 100 µM | [8] > 100 µM | [9] > 100 µM | [10] > 100 µM | [11] > 100 µM | [12] > 100 µM | [13] > 100 µM | [14] > 100 µM | [15] > 100 µM

Cc1nc(Nc2ccc(Cl)cc2)sc1C(=O)NNC(=S)NN
inactive: [1] 20.9 µM | [2] 27.3 µM | [3] 21.1 µM | [4] 18.9 µM | [5] 15.3 µM | [6] 17.5 µM | [7] 17.5 µM | [8] 18.5 µM | [9] 19.3 µM | [10] 19.7 µM | [11] 32.7 µM | [12] 16.6 µM | [13] 29.1 µM | [14] 20.1 µM | [15] 15.8 µM

O=C1CCC(=O)N1CNc1cccc(NCN2C(=O)CCC2=O)c1
inactive: [1] > 100 µM | [2] 45.6 µM | [3] 70 µM | [4] > 100 µM | [6] > 100 µM | [7] > 100 µM | [8] > 100 µM | [9] > 100 µM | [10] > 100 µM | [11] 12.9 µM | [12] > 100 µM | [13] 29.6 µM | [14] > 100 µM | [15] > 100 µM

Cc1ccc(C)c(NC(=O)CC/C(=N\NC(=O)C(N)=O)C(C)C(=O)c2ccc(O)cc2)c1 (configuration not stated)
inactive: [2] > 100 µM | [3] > 100 µM | [4] > 100 µM | [6] > 100 µM | [7] > 100 µM | [8] > 100 µM | [16] > 100 µM | [9] > 100 µM | [10] > 100 µM | [13] > 100 µM | [14] > 100 µM | [15] > 100 µM

C=C(C)CCOC(c1ccccc1)(c1ccccc1)c1ccccc1
inactive: [1] 83.4 µM | [2] > 100 µM | [3] 47 µM | [4] > 100 µM | [6] 37.4 µM | [7] 50 µM | [9] 64.4 µM | [10] 32.8 µM | [11] 68.7 µM | [12] 18.9 µM | [13] 61.4 µM | [14] 48.6 µM | [15] 27.7 µM

CN(C)c1ccc(/C=C2\Cc3ccccc3C2=O)cc1Br
inactive: [1] > 100 µM | [2] 33 µM | [3] 32.7 µM | [4] > 100 µM | [5] > 100 µM | [6] > 100 µM | [7] 53.3 µM | [8] 40.6 µM | [9] > 100 µM | [10] 54.6 µM | [11] 38.5 µM | [12] 23.4 µM | [13] 34.1 µM | [14] 43.2 µM | [15] 36.6 µM

COC(=O)OCC1OC(N2C(=O)NC(=O)C(Br)C2N=[N+]=[N-])CC1OC(=O)OC (configuration not stated)
inactive: [1] > 100 µM | [3] > 100 µM | [4] > 100 µM | [6] > 100 µM | [7] > 100 µM | [9] > 100 µM | [10] > 100 µM | [11] > 100 µM | [12] 66.4 µM | [13] > 100 µM | [14] > 100 µM | [15] > 100 µM

COc1ccc2c(c1)[n+]([O-])c(C(=O)C/C(=N/NC(=O)C[N+](C)(C)C)C(=O)Nc1cccc(C)c1C)c(C)[n+]2[O-]
inactive: [2] > 100 µM | [3] > 100 µM | [4] > 100 µM | [5] > 100 µM | [6] > 100 µM | [7] > 100 µM | [8] > 100 µM | [9] > 100 µM | [10] > 100 µM | [11] > 100 µM | [12] > 100 µM | [14] 6.34 µM | [15] > 100 µM

C=CC(=O)NCCSCCCOC1(C(=O)O)CC(O)C(NC(C)=O)C(C(O)C(O)CO)O1 (configuration not stated)
inactive: [1] > 100 µM | [2] > 100 µM | [4] > 100 µM | [6] > 100 µM | [7] > 100 µM | [8] > 100 µM | [16] > 100 µM | [9] > 100 µM | [10] > 100 µM | [12] > 100 µM | [14] > 100 µM | [15] > 100 µM

CC(=O)OC[C@]1(O)CC[C@@]23CC1C[C@@H]2CCC1C(C)(C)CCC[C@@]13C (some centres not stated)
inactive: [1] 13.4 µM | [2] 4.76 µM | [3] 14.9 µM | [4] 14.5 µM | [6] 17.6 µM | [7] 14 µM | [16] 8.89 µM | [9] 17.1 µM | [10] 13.9 µM | [11] 16.1 µM | [12] 2.64 µM | [13] 10.1 µM | [14] 13 µM | [15] 16.1 µM
